According to patent US20180015070A1, “METHODS AND COMPOSITIONS FOR UPREGULATING ENDOGENOUS ANTIOXIDANT SYSTEMS” (USANA Health Sciences, Inc., priority 2016, published 2018):
Where two headings read alike, the source gives them in different places. Marks after values point to notes of the source that are not given here. Blank lines part the entries; values can stand above or below the compound they belong to.

How the values were obtained:
[1] = system: C. elegans strain CB5586 worms; assay: phenotypic lifespan screening with C. elegans; format: in vivo; conditions: for anti-ageing activity / effect on chronological lifespan: over the concentrations tested; for population age in days at 25% mortality: DMSO control 11; for population age in days at 50% mortality: DMSO control 14; for population age in days at 75% mortality: DMSO control 16
Description: Dilutions of the test formulations were applied to individual populations of C. elegans and the lifespan of each population was monitored. Any changes in the lifespan of an individual population compared to a control population were recorded and correlated to the respective test formulation (N356 or N357) and the respective dilution (0.1 mg/ml, 1 mg/ml, and 10 mg/ml).
The N356 and N357 formulations were each prepared as individual 100 mg/ml stock solutions in dimethyl sulfoxide (DMSO). Serial dilutions of each stock solution were then prepared at 0.1 mg/ml, 1 mg/ml, and 10 mg/ml in DMSO. Control solutions of DMSO only were also prepared. Synchronous aged adult populations of C. elegans strain CB5586 worms were prepared. The CB5586 strain comprises a pharyngeal GFP (green fluorescent protein) tag and a mutation in the bus-5 gene. The pharyngeal GFP tag allows for fluorescent images of the worm populations to be taken. The mutation in the bus-5 gene causes the loss of normal cuticle antigens that permits the cuticle of the worms to become permeable to the test formulations and allow direct uptake of the test formulations to avoid interaction of the test formulations with protective mechanisms of the gut channel. Each serial dilution of each test formulation was added to a separate population of the prepared worms. The control solutions were also added to separate populations of the prepared worms. The populations of the prepared worms were then maintained on standard nematode growth media (NGM) agar plates at 20° C. with sufficient food (Escherichia coli strain OP-50).
Each worm population was then monitored by fluorescent imaging to determine the number of living and dead worms as a function of time. The fluorescent imaging was analyzed by software that recognized and counted worms based on their fluorescent intensity compared to background fluorescence. […] The ability to distinguish between living and dead worms allowed the number of living worms and cumulative number of dead worms to be monitored against time. Worm populations from a selection of fluorescent images were manually checked to verify that the software had accurately counted the number of living and dead worms.
The counts of the living and dead worms as a function of time were then analyzed for each of the worm populations and used to prepare Kaplan-Meier survival curves and associated statistics for each of the worm populations. […] The median lifespan is shown as the length of time after the last mitotic division that 50% of the test population remains viable when compared to the control population. The maximum lifespan extension is shown as the length of time after the last mitotic division that 5% of the test population remains viable when compared to the control population.
The counts of the living and dead worms as a function of time and the Kaplan-Meier survival curves and the associated statistics were then analyzed for each of the worm populations. The analysis included determining mean and median lifespan. The analysis included a non-parametric test, the Log-Rank test, which compares two survival functions for the overall lifespan assay and provides a reliable p-value summarizing the whole experiment. The analysis also included Fisher's Exact Test that calculated the significance of survival function comparisons at multiple specific time points throughout the experiment, rather than for the overall lifespan. The results of the analysis are shown below in Tables 10-17. […]

[2] = system: NF-κB reporter cells (HEK293); conditions: human, 24 h
[3] = system: human Nrf2; assay: Nrf2 reporter assay, agonist mode (native receptor, ARE-luciferase, CV1); format: cell-based; conditions: for agonist activity against human Nrf2: at the concentrations tested
[4] = system: Nrf2; assay: Nrf2 signaling fluorescent reporter assay in human retinal epithelial cell line; format: cell-based; conditions: for minimum inducing concentration (Nrf2): human retinal epithelial cell line
Description: The assays were carried out with a fluorescent reporter assay that utilized a human retinal epithelial cell line. The assays also included validation by RT-PCR (reverse transcription polymerase chain reaction) of Nrf2 target genes. The human retinal epithelial cell line was purchased from ATCC (American Type Cell Culture, Manassas, Va.) and was configured to function as a fluorescent reporter assay. Test solutions of each of the alpha lipoic acid, resveratrol, curcumin, EGCG, Olivol®, rutin, quercetin, and hesperetin were prepared by serial dilution. Control solutions were also prepared. Positive control solutions of a known Nrf2 agonist, L-sulphoraphane was also prepared. Each test solution was then assayed for Nrf2 signaling activity using the fluorescent reporter assay and compared to control assays. The positive control solutions were also tested.

[5] = 0.1 mg/ml, compared to DMSO control
[6] = 10 mg/ml, compared to DMSO control
[7] = at 10 μM and 1 (unit not given)

NF-κB % Live Cell ([2]; 0.043 μg/ml): 98% | NF-κB % Live Cell ([2]; 0.389 μg/ml): 99% | NF-κB % Live Cell ([2]; 1.167 μg/ml): 98% | NF-κB % Live Cell ([2]; 3.5 μg/ml): 96%
Compound: COc1ccc([C@@H]2CC(=O)c3c(O)cc(O)cc3O2)cc1O [Hesperetin, (S)-2,3-Dihydro-5,7-dihydroxy-2-(3-hydroxy-4-methoxyphenyl)-4H-1-benzopyran-4-one]
Nrf2 Fold-Activation ([3]; 0.043 μg/ml active ingredient): 1.4 fold | Nrf2 Fold-Activation ([3]; 0.389 μg/ml active ingredient): 1.3 fold | Nrf2 Fold-Activation ([3]; 1.167 μg/ml active ingredient): 1.5 fold | Nrf2 Fold-Activation ([3]; 3.5 μg/ml active ingredient): 0.94 fold

NF-κB % Live Cell ([2]; 0.28 μg/ml): 100% | NF-κB % Live Cell ([2]; 0.85 μg/ml): 100% | NF-κB % Live Cell ([2]; 1.81 μg/ml): 99%
Compound: Oc1ccc(/C=C/c2cc(O)cc(O)c2)cc1 [Resveratrol, 3,5,4′-trihydroxy-trans-stilbene]
Statistically Significant Result [1, 5]: No statistical difference | anti-ageing activity / effect on chronological lifespan [1]: significant positive and dose dependent increase of chronological lifespan | activation of Nrf2 against a control [4, 7]: demonstrated activation of Nrf2

Continued, compound first:

Compound: O=C(O)CCCCC1CCSS1 (racemic) [Alpha lipoic acid, alpha lipoic acid]
anti-ageing activity / effect on chronological lifespan [1]: significant positive and dose dependent increase of chronological lifespan | NF-κB % Live Cell ([2]; 1.42 μg/ml): 100% | Nrf2 Fold-Activation ([3]; 1.42 μg/ml active ingredient): 1.4 fold | Nrf2 Fold-Activation ([3]; 4.25 μg/ml active ingredient): 1.4 fold | Nrf2 Fold-Activation ([3]; 12.7 μg/ml active ingredient): 1.5 fold | Nrf2 Fold-Activation ([3]; 38.23 μg/ml active ingredient): 1.5 fold | Nrf2 Fold-Activation ([3]; 114.70 μg/ml active ingredient): 2.4 fold | agonist activity against human Nrf2 [3]: very low-level agonist activity | activation of Nrf2 against a control ([4]; at 100 μM and 30 (unit not given)): demonstrated activation of Nrf2 | minimum inducing concentration (Nrf2) [4]: 1.75 µM

Compound: COc1cc(/C=C/C(=O)CC(=O)/C=C/c2ccc(O)c(OC)c2)ccc1O [Curcumin, curcumin]
NF-κB % Live Cell ([2]; 0.6 μg/ml): 99% | NF-κB % Live Cell ([2]; 1.81 μg/ml): 97% | Nrf2 Fold-Activation ([3]; 0.007 μg/ml active ingredient): 1.6 fold | Nrf2 Fold-Activation ([3]; 0.022 μg/ml active ingredient): 1.7 fold | Nrf2 Fold-Activation ([3]; 0.067 μg/ml active ingredient): 1.4 fold | Nrf2 Fold-Activation ([3]; 0.20 μg/ml active ingredient): 0.96 fold | Nrf2 Fold-Activation ([3]; 0.60 μg/ml active ingredient): 1.0 fold | Nrf2 Fold-Activation ([3]; 1.81 μg/ml active ingredient): 1.6 fold

Compound: COc1ccc([C@@H]2CC(=O)c3c(O)cc(O[C@@H]4O[C@H](CO[C@@H]5O[C@@H](C)[C@H](O)[C@@H](O)[C@H]5O)[C@@H](O)[C@H](O)[C@H]4O)cc3O2)cc1O [N347, Hesperidin]
% Change in Mean Lifespan [1, 5]: +10% | extension of lifespan ([1]; 0.1 mg/ml, vs DMSO control): about 10% | population age in days at 25% mortality ([1]; 0.1 mg/ml): 11 days | population age in days at 50% mortality ([1]; 0.1 mg/ml): 16 days | population age in days at 75% mortality ([1]; 0.1 mg/ml): 18 days | Statistically Significant Result [1, 6]: No statistical difference | population age in days at 25% mortality ([1]; 10 mg/ml): 11 days | population age in days at 50% mortality ([1]; 10 mg/ml): 14 days | population age in days at 75% mortality ([1]; 10 mg/ml): 18 days | anti-ageing activity / effect on chronological lifespan [1]: significant positive and dose dependent increase of chronological lifespan

Compound: O=c1c(O)c(-c2ccc(O)c(O)c2)oc2cc(O)cc(O)c12 [Quercetin, 2-(3,4-dihydroxyphenyl)-3,5,7-trihydroxy-4H-chromen-4-one]
Statistically Significant Result [1, 6]: No statistical difference | anti-ageing activity / effect on chronological lifespan [1]: significant negative effect on chronological lifespan | NF-κB % Live Cell ([2]; 23 μg/ml): 97% | NF-κB % Live Cell ([2]; 68 μg/ml): 77*** % | agonist activity against human Nrf2 [3]: low-level agonist activity | concentration giving more Nrf2 activation ([4]; 10 μM compared with 1 μM): more activation at the 1 μM concentration | activation of Nrf2 against a control [4, 7]: demonstrated activation of Nrf2 | minimum inducing concentration (Nrf2) [4]: 0.55 µM

Compound: C[C@@H]1O[C@@H](OC[C@H]2O[C@@H](Oc3c(-c4ccc(O)c(O)c4)oc4cc(O)cc(O)c4c3=O)[C@H](O)[C@@H](O)[C@@H]2O)[C@H](O)[C@H](O)[C@H]1O [Rutin, quercetin-3-O-rutinoside]
NF-κB % Live Cell ([2]; 1.11 μg/ml): 99% | NF-κB % Live Cell ([2]; 3.3 μg/ml): 98% | NF-κB % Live Cell ([2]; 30 μg/ml): 97%
